Measured values as given in ChEMBL document CHEMBL1153985, “In vitro and in vivo SAR of pyrido[3,4-d]pyramid-4-ylamine based mGluR1 antagonists” (Bioorg Med Chem Lett, 2009).
Active and inactive are the calls of the source.

Assays:
[1] = biological target: Metabotropic glutamate receptor 1 (Rattus norvegicus, UniProt P23385); test: Antagonist activity at rat mGluR1a expressed in CHO cells assessed as inhibition of glutamate-evoked increase in calcium […] preincubated 5 mins before glutamate challenge; assay type: functional, cell-based
[2] = Ratio of free drug level in cerebrospinal fluid to steady state unbound plasma in iv dosed rat; assay type: ADME, organism-based
[3] = Lipophilicity, log D of the compound; assay type: physicochemical; details: octanol/water
[4] = biological target: Metabotropic glutamate receptor 1 (Homo sapiens, UniProt Q13255); test: Antagonist activity at mGluR1; assay type: functional
[5] = Half life in rat at 1 mg/kg; assay type: ADME, organism-based; set-up: dose 1 mg/kg; details: in vivo
[6] = Clearance in rat at 1 mg/kg; assay type: ADME, organism-based; set-up: dose 1 mg/kg; details: in vivo
[7] = Volume of distribution in rat at 1 mg/kg; assay type: ADME, organism-based; set-up: dose 1 mg/kg; details: in vivo
[8] = Oral bioavailability in rat at 1 mg/kg; assay type: ADME, organism-based; details: in vivo
[9] = Protein binding in rat plasma at 1 mg/kg; assay type: ADME, organism-based; set-up: dose 1 mg/kg; details: read-out: PPB (converted)
Liver microsomes [10] = test: Metabolic stability in human liver microsomes assessed as intrinsic clearance; assay type: ADME, Microsome
Liver microsomes [11] = test: Metabolic stability in rat liver microsomes assessed as intrinsic clearance; assay type: ADME, Microsome
[12] = biological target: Metabotropic glutamate receptor 5 (Homo sapiens, UniProt P41594); test: Antagonist activity at mGluR5; assay type: functional
Rattus norvegicus [13] = test: Antinociceptive activity in anaesthetized rat assessed as inhibition of noxious pinch-induced electromyograph response at 22 mg/kg, iv administered as bolus dose for 30 seconds and 9.6 mg/kg/hr, iv administered via infusion measured after 1 hr; assay type: functional, organism-based
Rattus norvegicus [14] = test: Antinociceptive activity in anaesthetized rat assessed as inhibition of low threshold tactile stimulus-induced electromyograph response at 22 mg/kg, iv administered as bolus dose for 30 seconds and 9.6 mg/kg/hr, iv administered via infusion measured after 1 hr; assay type: functional, organism-based
Rattus norvegicus [15] = test: Antinociceptive activity in anaesthetized rat assessed as maximal inhibition of noxious pinch-induced electromyograph response at 10 fold free Ki concentration in cerebrospinal fluid measured after 1 hr; assay type: functional, organism-based
Rattus norvegicus [16] = test: Free plasma concentration in anaesthetized electromyograph pinch rat model at 22 mg/kg, iv administered as bolus dose for 30 seconds and 9.6 mg/kg/hr, iv administered via infusion; assay type: ADME, organism-based; details: in vivo
Rattus norvegicus [17] = test: Toxicity in anaesthetized electromyograph pinch rat model assessed as effect on sensory input to spinal cord at 22 mg/kg, iv administered as bolus dose for 30 seconds and 9.6 mg/kg/hr, iv administered via infusion; assay type: organism-based; details: in vivo
[18] = Solubility of the compound; assay type: physicochemical
Rattus norvegicus [19] = test: Antinociceptive activity in anaesthetized rat assessed as maximal inhibition of noxious pinch-induced electromyograph response at 8 to 16 fold free Ki concentration in cerebrospinal fluid measured after 1 hr; assay type: functional, organism-based
Rattus norvegicus [20] = test: Analgesic activity in awake rat at 0.3 mg/kg, iv administered as bolus dose for 30 seconds and 0.3 mg/kg/hr, iv administered via infusion measured after 1 hr; assay type: functional, organism-based
Rattus norvegicus [21] = test: Antinociceptive activity in anaesthetized rat assessed as inhibition of noxious pinch-induced electromyograph response at 0.3 mg/kg, iv administered as bolus dose for 30 seconds and 0.3 mg/kg/hr, iv administered via infusion measured after 1 hr; assay type: functional

Sequence of Metabotropic glutamate receptor 1 (Rattus norvegicus, UniProt P23385) (P23385 whole entry): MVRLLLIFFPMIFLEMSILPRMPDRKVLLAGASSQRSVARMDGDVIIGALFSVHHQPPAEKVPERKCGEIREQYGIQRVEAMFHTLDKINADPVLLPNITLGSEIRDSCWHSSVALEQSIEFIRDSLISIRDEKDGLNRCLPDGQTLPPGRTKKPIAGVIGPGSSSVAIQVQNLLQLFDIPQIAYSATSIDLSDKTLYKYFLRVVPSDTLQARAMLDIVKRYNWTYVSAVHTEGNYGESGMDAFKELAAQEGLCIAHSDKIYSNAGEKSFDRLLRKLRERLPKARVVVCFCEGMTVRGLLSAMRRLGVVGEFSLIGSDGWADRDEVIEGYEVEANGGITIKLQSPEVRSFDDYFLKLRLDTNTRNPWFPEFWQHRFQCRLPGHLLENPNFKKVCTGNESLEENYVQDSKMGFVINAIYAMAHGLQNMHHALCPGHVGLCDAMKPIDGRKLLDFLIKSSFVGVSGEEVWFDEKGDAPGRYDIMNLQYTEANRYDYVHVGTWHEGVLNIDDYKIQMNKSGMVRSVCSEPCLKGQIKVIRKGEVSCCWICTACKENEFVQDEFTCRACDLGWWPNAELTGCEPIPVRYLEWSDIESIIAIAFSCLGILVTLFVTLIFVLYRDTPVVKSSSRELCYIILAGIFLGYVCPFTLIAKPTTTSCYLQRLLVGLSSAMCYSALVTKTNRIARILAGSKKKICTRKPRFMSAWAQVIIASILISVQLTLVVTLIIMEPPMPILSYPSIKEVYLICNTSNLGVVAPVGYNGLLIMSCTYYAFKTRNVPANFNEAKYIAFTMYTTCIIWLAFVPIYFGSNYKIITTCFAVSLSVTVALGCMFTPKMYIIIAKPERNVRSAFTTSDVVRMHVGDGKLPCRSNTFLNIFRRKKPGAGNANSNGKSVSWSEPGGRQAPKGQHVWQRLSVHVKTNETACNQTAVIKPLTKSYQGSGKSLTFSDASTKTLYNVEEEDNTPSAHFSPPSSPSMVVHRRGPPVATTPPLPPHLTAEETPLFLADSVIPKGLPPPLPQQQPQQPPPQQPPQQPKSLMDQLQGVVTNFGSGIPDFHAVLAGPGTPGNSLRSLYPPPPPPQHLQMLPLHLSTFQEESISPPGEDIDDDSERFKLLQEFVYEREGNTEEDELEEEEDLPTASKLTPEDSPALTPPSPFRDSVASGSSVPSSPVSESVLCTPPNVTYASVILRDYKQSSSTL
Sequence of Metabotropic glutamate receptor 1 (Homo sapiens, UniProt Q13255) (Q13255 whole entry): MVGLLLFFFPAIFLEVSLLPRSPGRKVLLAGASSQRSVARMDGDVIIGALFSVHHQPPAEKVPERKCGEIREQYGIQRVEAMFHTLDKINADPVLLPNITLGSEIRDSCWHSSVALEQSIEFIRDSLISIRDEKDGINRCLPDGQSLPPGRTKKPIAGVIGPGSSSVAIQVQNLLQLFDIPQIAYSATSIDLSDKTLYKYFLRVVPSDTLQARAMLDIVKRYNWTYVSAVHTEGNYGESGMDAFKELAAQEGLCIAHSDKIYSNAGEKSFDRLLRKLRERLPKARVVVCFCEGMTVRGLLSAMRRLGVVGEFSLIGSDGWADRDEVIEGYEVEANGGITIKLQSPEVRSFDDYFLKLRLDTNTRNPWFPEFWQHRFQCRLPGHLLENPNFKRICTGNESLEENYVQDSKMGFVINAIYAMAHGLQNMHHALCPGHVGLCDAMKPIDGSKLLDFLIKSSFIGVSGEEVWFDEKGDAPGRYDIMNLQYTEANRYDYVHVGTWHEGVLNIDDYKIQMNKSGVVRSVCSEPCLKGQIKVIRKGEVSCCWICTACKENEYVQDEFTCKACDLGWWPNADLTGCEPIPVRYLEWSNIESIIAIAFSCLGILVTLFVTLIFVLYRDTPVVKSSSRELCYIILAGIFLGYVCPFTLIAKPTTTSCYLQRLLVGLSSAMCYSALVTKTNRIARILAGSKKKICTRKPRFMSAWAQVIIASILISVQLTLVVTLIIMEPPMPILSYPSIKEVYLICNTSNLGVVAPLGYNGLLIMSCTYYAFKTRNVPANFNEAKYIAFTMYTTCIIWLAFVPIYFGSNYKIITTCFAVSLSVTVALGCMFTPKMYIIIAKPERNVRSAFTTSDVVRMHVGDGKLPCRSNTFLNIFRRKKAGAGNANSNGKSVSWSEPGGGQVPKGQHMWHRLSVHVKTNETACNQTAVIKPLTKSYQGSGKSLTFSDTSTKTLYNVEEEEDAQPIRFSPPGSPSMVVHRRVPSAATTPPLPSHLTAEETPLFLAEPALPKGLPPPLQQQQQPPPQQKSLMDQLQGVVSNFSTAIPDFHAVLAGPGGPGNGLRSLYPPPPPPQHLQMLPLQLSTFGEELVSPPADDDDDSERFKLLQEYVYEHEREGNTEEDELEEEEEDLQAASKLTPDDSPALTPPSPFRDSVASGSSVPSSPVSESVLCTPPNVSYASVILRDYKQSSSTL
Sequence of Metabotropic glutamate receptor 5 (P41594 whole entry, the tested form may be a part): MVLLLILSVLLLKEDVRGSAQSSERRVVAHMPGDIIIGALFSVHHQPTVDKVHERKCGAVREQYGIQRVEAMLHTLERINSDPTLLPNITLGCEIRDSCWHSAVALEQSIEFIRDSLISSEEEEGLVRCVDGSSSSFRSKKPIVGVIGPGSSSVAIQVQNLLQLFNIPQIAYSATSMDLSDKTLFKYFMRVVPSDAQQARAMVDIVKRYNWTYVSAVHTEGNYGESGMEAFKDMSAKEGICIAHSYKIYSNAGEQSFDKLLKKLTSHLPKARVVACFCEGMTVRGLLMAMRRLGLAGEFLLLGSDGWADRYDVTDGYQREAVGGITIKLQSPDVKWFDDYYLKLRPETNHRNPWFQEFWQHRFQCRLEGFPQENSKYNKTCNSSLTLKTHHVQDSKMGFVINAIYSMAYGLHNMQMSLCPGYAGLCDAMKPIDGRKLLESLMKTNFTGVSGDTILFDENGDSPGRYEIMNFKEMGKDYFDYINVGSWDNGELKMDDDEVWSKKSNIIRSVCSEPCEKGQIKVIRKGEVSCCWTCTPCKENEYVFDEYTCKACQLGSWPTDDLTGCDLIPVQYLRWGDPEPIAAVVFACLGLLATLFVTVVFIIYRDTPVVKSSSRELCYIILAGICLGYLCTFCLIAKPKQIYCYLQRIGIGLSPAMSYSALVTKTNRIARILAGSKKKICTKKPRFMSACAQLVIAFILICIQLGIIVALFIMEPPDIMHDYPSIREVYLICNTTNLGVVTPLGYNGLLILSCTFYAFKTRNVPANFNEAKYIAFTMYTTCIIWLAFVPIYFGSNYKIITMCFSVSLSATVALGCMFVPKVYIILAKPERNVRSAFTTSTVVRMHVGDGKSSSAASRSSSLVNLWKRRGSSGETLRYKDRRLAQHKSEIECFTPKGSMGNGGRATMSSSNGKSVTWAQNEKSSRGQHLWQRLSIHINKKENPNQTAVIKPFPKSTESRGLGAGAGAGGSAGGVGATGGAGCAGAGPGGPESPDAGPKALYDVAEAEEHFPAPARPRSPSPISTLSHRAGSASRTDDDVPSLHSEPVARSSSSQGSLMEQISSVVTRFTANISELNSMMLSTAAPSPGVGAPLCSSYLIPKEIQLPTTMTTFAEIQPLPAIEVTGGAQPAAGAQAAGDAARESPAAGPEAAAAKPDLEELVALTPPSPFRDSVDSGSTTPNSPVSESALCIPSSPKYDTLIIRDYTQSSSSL

SMILES | Ki [1] | other results
CNc1cc2c(NC3Cc4ccccc4C3)ncnc2cn1 | 14 nM | Kp uu [2]: 0.06; logD [3]: 2.9
c1nc(NC2CCCCC2)c2cc(OCCN3CCOCC3)ncc2n1 | 42 nM | 
CNc1cc2c(N(C)C3Cc4ccccc4C3)ncnc2cn1 | 54 nM | 
O=C1CCCN1CCOc1cc2c(NC3CCCCC3)ncnc2cn1 | 20 nM | 
OCCOCCNc1cc2c(NC3Cc4ccccc4C3)ncnc2cn1 | 3 nM | IC50 [4]: 3 nM; half-life [5]: 18 min; clearance [6]: 26 mL/min/kg; Vd [7]: 0.6 L/kg; bioavailability [8]: 33%; fraction unbound [9]: 0.19; clearance (Liver microsomes [10]): < 7 µL/min/mg; clearance (Liver microsomes [11]): 30 µL/min/mg; IC50 [12]: > 3 µM; inhibition (Rattus norvegicus [13]): Active; inhibition (Rattus norvegicus [14]): inactive; inhibition (Rattus norvegicus [15]): Active; Cp (Rattus norvegicus [16]): > 1 µM; Activity (Rattus norvegicus [17]): Non-toxic; solubility [18]: Insoluble; Kp uu [2]: 0.02; logD [3]: 3
NCCNc1cc2c(NC3CCCCC3)ncnc2cn1 | 2200 nM | 
CNc1ncnc2cnc(NC3Cc4ccccc4C3)cc12 | 160 nM | 
OCCOc1cc2c(NC3CCCCC3)ncnc2cn1 | 177 nM | 
c1nc(NC2CCCCCC2)c2cc(OCCN3CCOCC3)ncc2n1 | 6 nM | clearance (Liver microsomes [10]): 24 µL/min/mg; Kp uu [2]: 0.5; logD [3]: 3.4; inhibition (Rattus norvegicus [19]): Active
c1ccc2c(c1)CC(Nc1nccc3ccccc13)C2 | 1650 nM | 
CN(C)CCNc1cc2c(NC3Cc4ccccc4C3)ncnc2cn1 | 102 nM | 
NCCCNc1cc2c(NC3CCCCC3)ncnc2cn1 | 200 nM | 
c1ccc2c(NC3CCCCC3)ccnc2c1 | 6160 nM | 
COCCOc1cc2c(NC3CCCCC3)ncnc2cn1 | 101 nM | 
COCCNc1cc2c(NC3Cc4ccccc4C3)ncnc2cn1 | 5 nM | 
Nc1cc2c(Nc3ccc(F)c(Cl)c3)ncnc2cn1 |  | IC50 [4]: 300 nM
c1ccc2c(c1)CC(Nc1ncnc3ccccc13)C2 | 34 nM | 

SMILES | Ki [1] | other results
CCCC(C)Nc1ncnc2cnc(N(C)C)cc12 (centres undefined) | 858 nM | 
c1nc(NC2CCCCC2)c2cc(NCCN3CCOCC3)ncc2n1 | 10 nM | Kp uu [2]: 0.07; logD [3]: 2.8
c1ccc2c(OC3CCCCC3)ncnc2c1 | 694 nM | 
CN(C)c1cc2c(NC3CCCCC3)ncnc2cn1 | 199 nM | 
CN(C)c1cc2c(N(C)C3Cc4ccccc4C3)ncnc2cn1 | 300 nM | 
C[C@H](Nc1ncnc2cnc(N(C)C)cc12)c1ccccc1 | 1400 nM | 
c1ccc2c(c1)CC(Nc1cc3c(NC4Cc5ccccc5C4)ncnc3cn1)C2 | 31 nM | 
c1ccc2c(NC3CCCCC3)ncnc2c1 | 27 nM | 
OCCNc1cc2c(NCCO)ncnc2cn1 | 6150 nM | 
OCCCOc1cc2c(NC3CCCCC3)ncnc2cn1 | 33 nM | 
CN1CC[C@]23c4c5ccc(O)c4O[C@H]2[C@@H](O)C=C[C@H]3[C@H]1C5 [MORPHINE] |  | Activity (Rattus norvegicus [20]): Active; inhibition in vivo at 0.3 mg/kg (Rattus norvegicus [21]): 40%
CN(C)c1cc2c(NC3Cc4ccccc4C3)ncnc2cn1 | 185 nM | 
COCCNc1cc2c(NC3CCCCC3)ncnc2cn1 | 11 nM | 
OCCNc1ncnc2cnc(NC3Cc4ccccc4C3)cc12 | 125 nM | 
COc1cc2c(NC3Cc4ccccc4C3)ncnc2cn1 | 115 nM | 
OCCNc1cc2c(NC3Cc4ccccc4C3)ncnc2cn1 | 21 nM | 
